{"source": "patent US20240317749A1", "about": "“THERAPEUTIC COMPOUNDS” (priority 2021, published 2024)", "key": {"[1]": {"system": "N. gonorrhoeae ATCC 49226", "test": "MIC assay for N. gonorrhoeae, broth microdilution in Todd-Hewitt (TH) broth", "type": "cell-based", "conditions": "Neisseria gonorrhoeae, ATCC49226; Antibacterial Activity against N. gonorrhoeae ATCC 49226 in TH", "from_the_text": "MIC assays for N. gonorrhoeae were done using the ATCC 49226 strain. The procedure guidelines recommended by the Clinical and Laboratory Standards Institute (CLSI) for the broth microdilution MIC assay were modified by substituting […]. Also, the recommended bacterial inoculum was modified to meet the high inoculum demands needed for N. gonorrhoeae growth. A 96-well plate containing TH broth with 2-fold serial dilution of compounds was inoculated with log-phase bacterial at 2.5×10^7 CFU/mL. The final volume in each well was 200 μL. Each compound was tested in duplicate. The microtiter plates were incubated in an […] environment for 24 hours at 37° C. using the candle jar technique. Then the bacterial growth was tested by reading the plate with a SpectraMax iD5 plate reader (Molecular Devices, Inc.) at 600 nm. The MIC was defined as the lowest compound concentration that inhibited bacteria growth."}, "[2]": {"system": "Methicillin-susceptible S. aureus (MSSA) ATCC 19636", "test": "MIC assay, CLSI broth microdilution in CAMH broth", "type": "cell-based, Staphylococcus aureus", "method": "(§1) MIC assays for various Gram-negative and Gram-positive strains were conducted in accordance with the CLSI guidelines for broth microdilution. A 96-well plate containing CAMH broth with 2-fold serial dilution of compounds was inoculated with log-phase bacterial at 5×10^5 CFU/mL. The final volume in each well was 100 μL. Each compound was tested in duplicate. The microtiter plates were incubated in an aerobic environment for 18 hours at 37° C. Then the bacterial growth was tested by reading the plate with a SpectraMax iD5 plate reader (Molecular Devices, Inc.) at 600 nm. The MIC was defined as the lowest compound concentration that inhibited bacteria growth.\n(§2) The following Gram-negative and Gram-positive strains were used in the aerobic MIC procedure: • P. aeruginosa ATCC 27853 • A. baumannii ATCC 19606 • E. coli ATCC 25922 • E. coli W4573 • E. coli N43 • K. pneumoniae ATCC 10031 • K. pneumoniae ATCC 13883 • S. sonnei ATCC 29930 • P. mirabilis ATCC 29906 • Methicillin-susceptible S. aureus (MSSA) ATCC 19636 • Methicillin-resistant S. aureus (MRSA) ATCC 33951"}, "[3]": {"system": "Methicillin-resistant S. aureus (MRSA) ATCC 33591", "test": "MIC assay, CLSI broth microdilution in CAMH broth", "type": "cell-based, Staphylococcus aureus", "method": "as §1, with “growth. […]” for “growth.”"}, "P. mirabilis ATCC 29906": {"system": "P. mirabilis ATCC 29906", "test": "MIC assay, CLSI broth microdilution in CAMH broth", "type": "cell-based, Proteus mirabilis", "method": "as §1, §2"}}, "data": [{"smiles": "Nc1nc(N)c2ccc3c(ccn3Cc3ccccc3)c2n1", "note": "[Example 1, 7-benzyl-7H-pyrrolo[2,3-h]quinazoline-2,4-diamine]", "values": [{"measurement": "MIC", "setting": "[1]", "result": 8, "unit": "mg/L"}]}, {"smiles": "N#Cc1ccc(Cn2ccc3c4nc(N)nc(N)c4ccc32)cc1", "note": "[Example 5, 4-((2,4-diamino-7H-pyrrolo[2,3-h]quinazolin-7-yl)methyl)benzonitrile]", "values": [{"measurement": "MIC", "setting": "[1]", "result": 16, "unit": "mg/L"}]}, {"smiles": "Nc1nc(N)c2ccc3c(ccn3Cc3cccc(C(F)(F)F)c3)c2n1", "note": "[Example 8, 7-(3-(trifluoromethyl)benzyl)-7H-pyrrolo[2,3-h]quinazoline-2,4-diamine]", "values": [{"measurement": "MIC", "setting": "[1]", "result": 8, "unit": "mg/L"}]}, {"smiles": "Nc1nc(N)c2ccc3c(ccn3Cc3ccc(OC(F)(F)F)cc3)c2n1", "note": "[Example 9, 7-(4-(trifluoromethoxy)benzyl)-7H-pyrrolo[2,3-h]quinazoline-2,4-diamine]", "values": [{"measurement": "MIC", "setting": "[1]", "result": 16, "unit": "mg/L"}]}, {"smiles": "CC(C)c1ccc(Cn2ccc3c4nc(N)nc(N)c4ccc32)cc1", "note": "[Example 10, 7-(4-isopropylbenzyl)-7H-pyrrolo[2,3-h]quinazoline-2,4-diamine]", "values": [{"measurement": "MIC", "setting": "[1]", "result": 4, "unit": "mg/L"}]}, {"smiles": "Nc1nc(N)c2ccc3c(ccn3Cc3ccc(C(F)(F)F)c(F)c3)c2n1", "note": "[Example 11, 7-(3-fluoro-4-(trifluoromethyl)benzyl)-7H-pyrrolo[2,3-h]quinazoline-2,4-diamine]", "values": [{"measurement": "MIC", "setting": "[1]", "result": 4, "unit": "mg/L"}]}, {"smiles": "Nc1nc(N)c2ccc3c(ccn3Cc3cc(Cl)ccc3F)c2n1", "note": "[Example 12, 7-(5-chloro-2-fluorobenzyl)-7H-pyrrolo[2,3-h]quinazoline-2,4-diamine]", "values": [{"measurement": "MIC", "setting": "[1]", "result": 4, "unit": "mg/L"}]}, {"smiles": "Nc1nc(N)c2ccc3c(ccn3Cc3cc(Cl)ccc3Cl)c2n1", "note": "[Example 13, 7-(2,5-dichlorobenzyl)-7H-pyrrolo[2,3-h]quinazoline-2,4-diamine]", "values": [{"measurement": "MIC", "setting": "[1]", "result": 16, "unit": "mg/L"}]}, {"smiles": "COc1cc(Cn2ccc3c4nc(N)nc(N)c4ccc32)cc(OC)c1", "note": "[Example 14, 7-(3,5-dimethoxybenzyl)-7H-pyrrolo[2,3-h]quinazoline-2,4-diamine]", "values": [{"measurement": "MIC", "setting": "[1]", "result": "> 64", "unit": "mg/L"}]}, {"smiles": "Nc1nc(N)c2ccc3c(ccn3Cc3ccc(Oc4ccccc4)cc3)c2n1", "note": "[Example 15, 7-(4-phenoxybenzyl)-7H-pyrrolo[2,3-h]quinazoline-2,4-diamine]", "values": [{"measurement": "MIC", "setting": "[1]", "result": 8, "unit": "mg/L"}]}, {"smiles": "Nc1nc(N)c2ccc3c(ccn3Cc3ccc(-c4ccccc4)cc3)c2n1", "note": "[Example 17, 7-([1,1′-biphenyl]-4-ylmethyl)-7H-pyrrolo[2,3-h]quinazoline-2,4-diamine]", "values": [{"measurement": "MIC", "setting": "[1]", "result": 8, "unit": "mg/L"}]}, {"smiles": "Nc1nc(N)c2ccc3c(ccn3Cc3cccc(-c4ccccc4)c3)c2n1", "note": "[Example 18, 7-([1,1′-biphenyl]-3-ylmethyl)-7H-pyrrolo[2,3-h]quinazoline-2,4-diamine]", "values": [{"measurement": "MIC", "setting": "[1]", "result": 16, "unit": "mg/L"}]}, {"smiles": "N#Cc1ccccc1-c1ccc(Cn2ccc3c4nc(N)nc(N)c4ccc32)cc1", "note": "[Example 19, 4′-((2,4-diamino-7H-pyrrolo[2,3-h]quinazolin-7-yl)methyl)-[1,1′-biphenyl]-2-carbonitrile]", "values": [{"measurement": "MIC", "setting": "[1]", "result": 0.25, "unit": "mg/L"}]}, {"smiles": "COC(=O)c1ccc(-c2ccc(Cn3ccc4c5nc(N)nc(N)c5ccc43)cc2)cc1", "note": "[Example 20, methyl 4′-((2,4-diamino-7H-pyrrolo[2,3-h]quinazolin-7-yl)methyl)-[1,1′-biphenyl]-4-carboxylate]", "values": [{"measurement": "MIC", "setting": "[1]", "result": "> 32", "unit": "mg/L"}]}, {"smiles": "Nc1nc(N)c2ccc3c(ccn3Cc3ccc(Br)cn3)c2n1", "note": "[Example 22, 7-((5-bromopyridin-2-yl)methyl)-7H-pyrrolo[2,3-h]quinazoline-2,4-diamine]", "values": [{"measurement": "MIC", "setting": "[1]", "result": 16, "unit": "mg/L"}]}, {"smiles": "Cn1c(Cn2ccc3c4nc(N)nc(N)c4ccc32)nc2ccccc21", "note": "[Example 23, 7-((1-methyl-1H-benzo[d]midazole-2-yl)methyl)-7H-pyrrolo[2,3-h]quinazoline-2,4-diamine]", "values": [{"measurement": "MIC", "setting": "[1]", "result": "> 64", "unit": "mg/L"}]}, {"smiles": "Nc1nc(N)c2ccc3c(ccn3Cc3nc(-c4ccccc4)cs3)c2n1", "note": "[Example 24, 7-((4-phenylthiazol-2-yl)methyl)-7H-pyrrolo[2,3-h]quinazoline-2,4-diamine]", "values": [{"measurement": "MIC", "setting": "[1]", "result": 4, "unit": "mg/L"}]}, {"smiles": "CC(C)=CCn1ccc2c3nc(N)nc(N)c3ccc21", "note": "[Example 25, 7-(3-methylbut-2-en-1-yl)-7H-pyrrolo[2,3-h]quinazoline-2,4-diamine]", "values": [{"measurement": "MIC", "setting": "[1]", "result": 4, "unit": "mg/L"}]}, {"smiles": "Nc1nc(N)c2ccc3c(ccn3CC3CC3)c2n1", "note": "[Example 28, 7-(cyclopropylmethyl)-7H-pyrrolo[2,3-h]quinazoline-2,4-diamine]", "values": [{"measurement": "MIC", "setting": "[1]", "result": 8, "unit": "mg/L"}]}, {"smiles": "Nc1nc(N)c2ccc3c(ccn3C(=O)c3ccccc3)c2n1", "note": "[Example 29, (2,4-diamino-7H-pyrrolo[2,3-h]quinazolin-7-yl)(phenyl)methanone]", "values": [{"measurement": "MIC", "setting": "[1]", "result": 32, "unit": "mg/L"}]}, {"smiles": "Cc1cc2c3nc(N)nc(N)c3ccc2n1Cc1cccc(Br)c1", "note": "[Example 30, 7-(3-bromobenzyl)-8-methyl-7H-pyrrolo[2,3-h]quinazoline-2,4-diamine]", "values": [{"measurement": "MIC", "setting": "[1]", "result": 16, "unit": "mg/L"}]}, {"smiles": "Cc1cc2c3nc(N)nc(N)c3ccc2n1Cc1ccc(-c2ccccc2-c2nnn[nH]2)cc1", "note": "[Example 32, 7-((2′-(1H-tetrazol-5-yl)-[1,1′-biphenyl]-4-yl)methyl)-8-methyl-7H-pyrrolo[2,3-h]quinazoline-2,4-diamine]", "values": [{"measurement": "MIC", "setting": "[1]", "result": "> 64", "unit": "mg/L"}]}, {"smiles": "Cc1cc2c3nc(N)nc(N)c3ccc2n1Cc1nc2ccccc2s1", "note": "[Example 33, 7-(benzo[d]thiazol-2-ylmethyl)-8-methyl-7H-pyrrolo[2,3-h]quinazoline-2,4-diamine]", "values": [{"measurement": "MIC", "setting": "[1]", "result": 8, "unit": "mg/L"}]}, {"smiles": "N#Cc1ccccc1-c1ccc(Cn2ccc3c4nc(N)nc(N)c4ccc32)c(F)c1F", "note": "[Example 40, 4′-((2,4-diamino-7H-pyrrolo[2,3-h]quinazolin-7-yl)methyl)-2′,3′-difluoro-[1,1′-biphenyl]-2-carbonitrile]", "values": [{"measurement": "Intrinsic MIC in CAMH", "setting": "[2]", "result": "0.25¤"}, {"measurement": "Intrinsic MIC in CAMH", "setting": "[3]", "result": "≤0.063¤"}, {"measurement": "Intrinsic MIC in CAMH", "setting": "P. mirabilis ATCC 29906", "result": ">64¤"}]}, {"smiles": "N#Cc1ccccc1-c1ccc(Cn2ccc3c4nc(N)nc(N)c4c(Br)cc32)cc1F", "note": "[Example 46, 4′-((2,4-diamino-5-bromo-7H-pyrrolo[2,3-h]quinazolin-7-yl)methyl)-2′-fluoro-[1,1′-biphenyl]-2-carbonitrile]", "values": [{"measurement": "Intrinsic MIC in CAMH", "setting": "[2]", "result": "4¤"}, {"measurement": "Intrinsic MIC in CAMH", "setting": "[3]", "result": "2¤"}, {"measurement": "Intrinsic MIC in CAMH", "setting": "P. mirabilis ATCC 29906", "result": ">64¤"}]}, {"smiles": "Nc1nc(N)c2c(Br)cc3c(ccn3Cc3cccc(Br)c3)c2n1", "note": "[Example 47, 5-bromo-7-(3-bromobenzyl)-7H-pyrrolo[2,3-h]quinazoline-2,4-diamine]", "values": [{"measurement": "Intrinsic MIC in CAMH", "setting": "[2]", "result": "4¤"}, {"measurement": "Intrinsic MIC in CAMH", "setting": "[3]", "result": "4¤"}, {"measurement": "Intrinsic MIC in CAMH", "setting": "P. mirabilis ATCC 29906", "result": "8¤"}]}, {"smiles": "Nc1nc(NCc2cccc(Br)c2)nc2c1c(Br)cc1c2ccn1Cc1cccc(Br)c1", "note": "[Example 48, 5-bromo-N^2,7-bis(3-bromobenzyl)-7H-pyrrolo[2,3-h]quinazoline-2,4-diamine]", "values": [{"measurement": "Intrinsic MIC in CAMH", "setting": "[2]", "result": ">64¤"}, {"measurement": "Intrinsic MIC in CAMH", "setting": "[3]", "result": ">64¤"}, {"measurement": "Intrinsic MIC in CAMH", "setting": "P. mirabilis ATCC 29906", "result": ">64¤"}]}, {"smiles": "N#Cc1ccccc1-c1ccc(Cn2ccc3c4nc(N)nc(N)c4cnc32)cc1F", "note": "[Example 51, 4′-((2,4-diamino-7H-pyrrolo[3′,2′:5,6]pyrido[4,3-d]pyrimidin-7-yl)methyl)-2′-fluoro-[1,1′-biphenyl]-2-carbonitrile]", "values": [{"measurement": "Intrinsic MIC in CAMH", "setting": "[2]", "result": "≤0.063¤"}, {"measurement": "Intrinsic MIC in CAMH", "setting": "[3]", "result": "≤0.063¤"}, {"measurement": "Intrinsic MIC in CAMH", "setting": "P. mirabilis ATCC 29906", "result": ">64¤"}]}, {"smiles": "CN[C@H](CC(C)C)C(=O)N[C@H]1C(=O)N[C@@H](CC(N)=O)C(=O)N[C@H]2C(=O)N[C@H]3C(=O)N[C@H](C(=O)N[C@H](C(=O)O)c4cc(O)cc(O)c4-c4cc3ccc4O)[C@H](O)c3ccc(c(Cl)c3)Oc3cc2cc(c3O[C@@H]2O[C@H](CO)[C@@H](O)[C@H](O)[C@H]2O[C@H]2C[C@](C)(N)[C@H](O)[C@H](C)O2)Oc2ccc(cc2Cl)[C@H]1O", "note": "[VAN, reference compound]", "values": [{"measurement": "Intrinsic MIC in CAMH", "setting": "[2]", "result": "2¤"}, {"measurement": "Intrinsic MIC in CAMH", "setting": "[3]", "result": "2¤"}]}]}
